# Experimental data from patent US9624209B2, “Substituted phenylureas and phenylamides as vanilloid receptor ligands” (Gruenenthal GmbH, priority 2009, dated 2017).
# Experiments:
# [1] = biological target: T1, vanilloid receptor 1 (VR1/TRPV1 receptor) (Homo sapiens, UniProt Q8NER1); assay: VR1/TRPV1 receptor affinity, NADA stimulus (human); assay type: cell-based; conditions: N-arachidonoyl dopamine; read-out: Ki (human being) [nM] NADA
# T1 construct: expressed in transfected cells; host or cells: CHO K1 cells (ECACC), stably transfected
# T1 sequence (Q8NER1 whole entry): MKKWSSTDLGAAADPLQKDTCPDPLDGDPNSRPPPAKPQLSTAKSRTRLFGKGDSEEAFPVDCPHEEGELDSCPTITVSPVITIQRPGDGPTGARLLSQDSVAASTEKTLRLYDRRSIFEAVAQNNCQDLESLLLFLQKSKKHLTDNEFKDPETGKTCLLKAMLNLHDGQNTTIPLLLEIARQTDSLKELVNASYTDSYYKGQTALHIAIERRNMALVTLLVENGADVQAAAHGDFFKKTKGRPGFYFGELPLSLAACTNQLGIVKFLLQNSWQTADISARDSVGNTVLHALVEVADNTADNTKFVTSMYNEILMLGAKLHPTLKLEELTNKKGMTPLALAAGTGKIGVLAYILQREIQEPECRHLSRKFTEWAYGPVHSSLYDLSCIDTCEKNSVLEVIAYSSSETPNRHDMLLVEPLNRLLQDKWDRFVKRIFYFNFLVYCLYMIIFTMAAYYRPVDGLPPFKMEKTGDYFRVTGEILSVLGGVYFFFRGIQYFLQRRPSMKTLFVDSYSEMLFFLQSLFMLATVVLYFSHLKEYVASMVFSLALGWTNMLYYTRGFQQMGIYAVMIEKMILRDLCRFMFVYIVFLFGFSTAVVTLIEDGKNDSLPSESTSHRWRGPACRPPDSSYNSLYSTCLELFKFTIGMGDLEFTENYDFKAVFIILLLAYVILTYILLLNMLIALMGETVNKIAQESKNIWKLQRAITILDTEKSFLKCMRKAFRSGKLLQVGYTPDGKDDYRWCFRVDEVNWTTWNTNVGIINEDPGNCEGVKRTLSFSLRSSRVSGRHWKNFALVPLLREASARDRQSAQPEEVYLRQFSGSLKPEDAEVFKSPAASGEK
# [2] = biological target: T1, vanilloid receptor 1 (VR1/TRPV1 receptor); assay: VR1 inhibition, 45° C. heat stimulus (human); assay type: cell-based, human being; parameters: key to IC50 (human being) [nM], 45° C.: result in words: AG=agonist; pAG=partial agonist; NE=no effect
Structure (SMILES),Ki [1],other results
"CC(C(=O)NCc1cc(C(C)(C)C)nn1-c1ccc(F)c(Cl)c1)c1ccc(NS(C)(=O)=O)c(F)c1 (centres unmarked) [Example 18, N-((3-tert-butyl-1-(3-chloro-4-fluorophenyl)-1H-pyrazol-5-yl)methyl)-2-(3-fluoro-4-(methylsulfonamido)phenyl)propanamide]",0.22 nM,
"CC(C(=O)NCc1cc(C(C)(C)C)nn1-c1cccc(Cl)c1)c1ccc(S(=O)(=O)N(C)C)c(F)c1 (centres unmarked) [Example 56, N-((3-tert-butyl-1-(3-chlorophenyl)-1H-pyrazol-5-yl)methyl)-2-(4-(N,N-dimethylsulfamoyl)-3-fluorophenyl)propanamide]",,"IC50 (human being) [nM], 45° C.: result in words [2]: AG"
"Cc1c(C(F)(F)F)nn(-c2cccc(Cl)c2)c1CNC(=O)C(C)c1ccc(CNS(C)(=O)=O)c(F)c1 (centres unmarked) [Example 134, N-((1-(3-chlorophenyl)-4-methyl-3-(trifluoromethyl)-1H-pyrazol-5-yl)methyl)-2-(3-fluoro-4-(methylsulfonamid-methyl)phenyl)propanamide]",,"IC50 ([2]; read-out: IC50 (human being) [nM], 45° C.): 546 nM"

# The next lines start with results.
Ki [1],Structure (SMILES),other results
4.99 nM,"CCCCCCn1nc(C(C)(C)C)cc1CNC(=O)C(C)c1ccc(NS(C)(=O)=O)c(F)c1 (centres unmarked) [Example 5, N-((3-tert-butyl-1-hexyl-1H-pyrazol-5-yl)methyl)-2-(3-fluoro-4-(methylsulfonamido)phenyl)propanamide]",
0.08 nM,"CC(C(=O)NCc1cc(C(C)(C)C)nn1-c1cccc(Cl)c1)c1cc(F)c(NS(C)(=O)=O)c(F)c1 (centres unmarked) [Example 29, N-((3-tert-butyl-1-(3-chlorophenyl)-1H-pyrazol-5-yl)methyl)-2-(3,5-difluoro-4-(methylsulfonamido)phenyl)propanamide]",
